Measured values: article PMC7037682, “Herb–Drug Interaction of Red Ginseng Extract and Ginsenoside Rc with Valsartan in Rats” (Molecules, 2020)

Key:
[1] = Plasma pharmacokinetics of ginsenosides in rats after 1-week repeated RGE; settings: LC-MS/MS, after RGE 1.5 g/kg/day po for 1 week
Method: The rats were randomly divided into the control and RGE groups. The RGE group received a RGE suspension (1.5 g/mL/kg/day, in distilled water) for 7 days via oral gavage. The control group received distilled water for 7 days via oral gavage. After 1 h following the last RGE treatment, valsartan was injected intravenously to both groups via the tail vein at 1 mg/mL/kg (dissolved in DMSO: saline = 2:8, v/v). […] After centrifugation of the blood samples at 16,000× g for 10 min, aliquots (50 μL each) of plasma samples were stored at −80 °C until the analysis of ginsenosides and valsartan.
The residue was reconstituted with 100 μL of 70% methanol consisting of 0.1% formic acid. An aliquot (20 μL) from the sample was injected into the LC-MS/MS system.
After freezing the aqueous layer at −80 °C for 2 h, the upper organic layer was transferred to a clean tube and evaporated to dryness. […] An aliquot (20 μL) from the sample was injected into the LC-MS/MS system. The samples were eluted through an Omega Polar C18 column (2.1 mm × 100 mm, 3 µm particle size) (Phenomenex, Torrance, CA, USA) using a mobile phase consisting of 0.1% formic acid in water: 0.1% formic acid in methanol (15:85, v/v) at a flow rate of 0.2 mL/min.
Pharmacokinetic parameters were calculated from plasma concentration-time profile using non-compartment analysis of WinNonlin (version 5.1; Pharsights, Cary, NC, USA). The statistical significance was assessed by t-test using Statistical Package for the Social Sciences (version 24.0; SPSS Inc., Chicago, IL, USA).

[2] = biological target: T1, OAT3 (Homo sapiens, UniProt Q8TCC7); experiment: Inhibition of OAT3-mediated [3H]ES uptake in HEK293-OAT3 cells; settings: read-out: IC50 OAT3; HEK293-OAT3, 0.1 μM [3H]ES uptake, 5 min
T1 sequence (Q8TCC7 1-542): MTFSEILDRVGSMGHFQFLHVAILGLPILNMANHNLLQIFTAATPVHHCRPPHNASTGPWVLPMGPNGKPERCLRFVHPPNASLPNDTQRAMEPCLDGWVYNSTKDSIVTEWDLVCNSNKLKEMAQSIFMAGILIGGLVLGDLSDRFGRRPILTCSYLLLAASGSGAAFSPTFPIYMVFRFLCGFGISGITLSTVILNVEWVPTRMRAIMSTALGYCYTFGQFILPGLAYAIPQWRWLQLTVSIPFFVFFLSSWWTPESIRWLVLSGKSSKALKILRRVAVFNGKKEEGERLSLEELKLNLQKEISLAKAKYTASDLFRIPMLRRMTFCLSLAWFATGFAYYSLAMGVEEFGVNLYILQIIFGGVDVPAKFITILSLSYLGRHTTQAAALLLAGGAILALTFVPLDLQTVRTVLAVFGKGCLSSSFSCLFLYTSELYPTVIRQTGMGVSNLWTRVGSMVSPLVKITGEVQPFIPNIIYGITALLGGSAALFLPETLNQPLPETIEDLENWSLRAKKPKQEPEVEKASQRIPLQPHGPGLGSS
Method: (§1) HEK293 cells overexpressing the OCT1, OCT2, OAT1, OAT3, OATP1B1, and OATP1B3 transporters (HEK293-OCT1, -OCT2, -OAT1, -OAT3, -OATP1B1, and -OATP1B3, respectively) and HEK293-mock cells (Corning Life Sciences; Woburn, MA, USA) were used and characterized as previously described.
(§2) HEK293 cells overexpressing drug transporters and HEK293-mock cells were seeded in poly-D-lysine-coated 96-well plates at a density of 10^5 cells/well and were cultured in DMEM supplemented with 10% FBS, 5 mM non-essential amino acids, and 2 mM sodium butyrate in a humidified atmosphere with 8% CO2 at 37 °C.
(§3) To examine the effects of ginsenosides and typical inhibitors on transporter activity, aliquots (100 μL) of HBSS containing the probe substrate and ginsenosides or typical inhibitors were added to the cells after aspirating pre-incubated HBSS. The concentrations and probe substrates were as follows: 0.1 μM [^3H]MPP^+ for OCT1 and OCT2, 0.1 μM [^3H]PAH for OAT1, 0.1 μM [^3H]ES for OAT3 and OATP1B1, and 0.1 μM [^3H]EG for OATP1B3. […] Then the uptake of probe substrates into HEK293-mock cells and HEK293-OCT1, -OCT2, -OAT1, -OAT3, -OATP1B1, and -OATP1B3 cells in the presence and absence of typical inhibitor or each ginsenoside with previously described concentration range was measured for 5 min. Immediately after placing the plates on ice, the cells were washed three times with 100 μL of ice-cold HBSS, followed by lysing with 50 μL of 10% SDS solution and mixing with 150 μL of Optiphase cocktail solution (Perkin Elmer Inc., Boston, MA, USA). The radioactivity of the probe substrates in the cells was determined using a liquid scintillation counter.
(§4) In the inhibition studies, the uptake rate of substrate by HEK293 cells overexpressing the respective transporters was used as the control (100%) and the uptake rate of substrates in the presence of typical inhibitors or ginsenosides expressed as a percentage of the control. The inhibition data were fitted to an inhibitory effect model using Sigma plot (version 10.0; Systat Software Inc., San Jose, CA, USA). IC50 value indicated the half-maximal inhibitory concentration of the inhibitor.

[3] = biological target: T2, OCT1 (Homo sapiens, UniProt O15245); experiment: Inhibition of OCT1-mediated [3H]MPP+ uptake in HEK293-OCT1 cells; settings: read-out: IC50 OCT1; HEK293-OCT1, 0.1 μM [3H]MPP+ uptake, 5 min
T2 sequence (O15245 1-554): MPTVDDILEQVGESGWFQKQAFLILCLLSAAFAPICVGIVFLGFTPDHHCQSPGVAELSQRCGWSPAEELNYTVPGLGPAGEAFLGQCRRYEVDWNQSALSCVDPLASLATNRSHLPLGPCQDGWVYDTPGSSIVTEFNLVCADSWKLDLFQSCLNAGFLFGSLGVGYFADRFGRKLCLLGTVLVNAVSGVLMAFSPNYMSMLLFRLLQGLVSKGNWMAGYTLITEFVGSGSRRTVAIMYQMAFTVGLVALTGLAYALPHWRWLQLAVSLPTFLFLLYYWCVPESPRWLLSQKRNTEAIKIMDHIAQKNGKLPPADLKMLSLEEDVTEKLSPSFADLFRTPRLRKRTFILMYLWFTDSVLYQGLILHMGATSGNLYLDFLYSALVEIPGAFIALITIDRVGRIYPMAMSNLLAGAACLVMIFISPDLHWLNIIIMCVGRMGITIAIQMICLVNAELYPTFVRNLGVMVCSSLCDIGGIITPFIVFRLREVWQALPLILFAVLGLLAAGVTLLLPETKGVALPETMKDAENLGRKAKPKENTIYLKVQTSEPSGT
Method: as §1, §2, §3, §4

CC(C)=CCC[C@](C)(O)[C@H]1CC[C@]2(C)[C@@H]1[C@H](O)C[C@@H]1[C@@]3(C)CC[C@H](O[C@@H]4O[C@H](CO)[C@@H](O)[C@H](O)[C@H]4O[C@@H]4O[C@H](CO)[C@@H](O)[C@H](O)[C@H]4O)C(C)(C)[C@@H]3CC[C@]12C [Rg3, ginsenoside Rg3]
detection in rat plasma [1]: not detected | IC50 [2]: > 100 µM | IC50 [3]: > 100 µM
